These results are taken from patent US10633366B2, “Antibacterial compounds” (AZIENDE CHIMICHE RIUNITE ANGELINI FRANCESCO A.C.R.A.F. …, priority 2016, dated 2020).

Experiment in all cases: biochemical
Assay [1] concerns the target E. coli DNA gyrase (Escherichia coli, UniProt P0AES4+P0AES6). The following applies: for IC50: IC50 DNA gyrase; for inhibition at 50 µM: read-out: % inhibition DNA gyrase.
Assay [2] deals with E. coli Topoisomerase IV (Escherichia coli, UniProt P0AFI2+P20083). The following applies: for IC50: IC50 Topo IV; for inhibition at 50 µM: read-out: % inhibition Topo IV.
Assay [3] has as its target S. aureus DNA gyrase (Staphylococcus aureus, UniProt P0A0K8+P20831). The following applies: for IC50: IC50 DNA gyrase; for inhibition at 50 µM: read-out: % inhibition DNA gyrase.
In assay [4] the target is S. aureus Topoisomerase IV (Staphylococcus aureus, UniProt P0C1S7+P0C1U9). The following applies: for IC50: IC50 Topo IV; for inhibition at 50 µM: S. aureus, compound conc. 50 μM, percent of inhibition versus positive control, n/a = not active, read-out: % inhibition Topo IV.

Bounds are passed on as bounds.

Chain of E. coli Topoisomerase IV (P0AFI2 whole entry): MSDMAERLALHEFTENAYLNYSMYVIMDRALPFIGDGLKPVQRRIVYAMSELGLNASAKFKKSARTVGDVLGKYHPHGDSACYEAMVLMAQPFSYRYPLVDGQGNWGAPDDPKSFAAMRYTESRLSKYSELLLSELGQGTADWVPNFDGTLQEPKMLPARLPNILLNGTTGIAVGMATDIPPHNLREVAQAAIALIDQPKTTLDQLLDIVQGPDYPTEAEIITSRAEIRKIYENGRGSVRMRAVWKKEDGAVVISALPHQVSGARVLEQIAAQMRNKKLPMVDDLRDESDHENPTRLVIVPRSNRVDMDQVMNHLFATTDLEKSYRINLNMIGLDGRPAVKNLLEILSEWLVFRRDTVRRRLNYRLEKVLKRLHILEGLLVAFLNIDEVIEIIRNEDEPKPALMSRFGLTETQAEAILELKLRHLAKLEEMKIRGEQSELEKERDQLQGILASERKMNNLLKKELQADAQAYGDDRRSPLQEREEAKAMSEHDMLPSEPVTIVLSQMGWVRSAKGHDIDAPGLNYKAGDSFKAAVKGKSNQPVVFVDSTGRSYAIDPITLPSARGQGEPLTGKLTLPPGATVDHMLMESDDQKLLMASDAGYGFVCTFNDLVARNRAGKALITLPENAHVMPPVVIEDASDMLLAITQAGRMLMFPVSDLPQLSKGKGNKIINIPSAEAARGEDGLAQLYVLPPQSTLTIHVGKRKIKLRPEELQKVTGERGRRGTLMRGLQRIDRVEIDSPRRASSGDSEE
Chain of E. coli Topoisomerase IV (P20083 whole entry): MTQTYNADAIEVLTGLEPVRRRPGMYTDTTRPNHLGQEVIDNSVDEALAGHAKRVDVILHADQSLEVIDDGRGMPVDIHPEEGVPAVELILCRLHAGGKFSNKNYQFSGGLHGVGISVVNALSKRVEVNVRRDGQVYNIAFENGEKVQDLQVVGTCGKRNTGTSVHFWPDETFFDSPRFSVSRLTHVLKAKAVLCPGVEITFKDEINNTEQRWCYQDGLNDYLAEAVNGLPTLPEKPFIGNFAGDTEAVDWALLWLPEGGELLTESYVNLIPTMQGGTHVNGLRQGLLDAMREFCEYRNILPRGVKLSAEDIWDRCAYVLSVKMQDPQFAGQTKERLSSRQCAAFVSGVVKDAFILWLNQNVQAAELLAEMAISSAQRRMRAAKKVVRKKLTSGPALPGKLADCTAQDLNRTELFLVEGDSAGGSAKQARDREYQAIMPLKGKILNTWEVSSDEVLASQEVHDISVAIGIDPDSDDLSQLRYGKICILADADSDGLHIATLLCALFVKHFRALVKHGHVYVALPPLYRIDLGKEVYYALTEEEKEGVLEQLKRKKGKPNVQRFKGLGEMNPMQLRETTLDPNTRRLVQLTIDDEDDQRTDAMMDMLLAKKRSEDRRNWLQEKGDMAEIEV
Chain of S. aureus Topoisomerase IV (P0C1U9 whole entry): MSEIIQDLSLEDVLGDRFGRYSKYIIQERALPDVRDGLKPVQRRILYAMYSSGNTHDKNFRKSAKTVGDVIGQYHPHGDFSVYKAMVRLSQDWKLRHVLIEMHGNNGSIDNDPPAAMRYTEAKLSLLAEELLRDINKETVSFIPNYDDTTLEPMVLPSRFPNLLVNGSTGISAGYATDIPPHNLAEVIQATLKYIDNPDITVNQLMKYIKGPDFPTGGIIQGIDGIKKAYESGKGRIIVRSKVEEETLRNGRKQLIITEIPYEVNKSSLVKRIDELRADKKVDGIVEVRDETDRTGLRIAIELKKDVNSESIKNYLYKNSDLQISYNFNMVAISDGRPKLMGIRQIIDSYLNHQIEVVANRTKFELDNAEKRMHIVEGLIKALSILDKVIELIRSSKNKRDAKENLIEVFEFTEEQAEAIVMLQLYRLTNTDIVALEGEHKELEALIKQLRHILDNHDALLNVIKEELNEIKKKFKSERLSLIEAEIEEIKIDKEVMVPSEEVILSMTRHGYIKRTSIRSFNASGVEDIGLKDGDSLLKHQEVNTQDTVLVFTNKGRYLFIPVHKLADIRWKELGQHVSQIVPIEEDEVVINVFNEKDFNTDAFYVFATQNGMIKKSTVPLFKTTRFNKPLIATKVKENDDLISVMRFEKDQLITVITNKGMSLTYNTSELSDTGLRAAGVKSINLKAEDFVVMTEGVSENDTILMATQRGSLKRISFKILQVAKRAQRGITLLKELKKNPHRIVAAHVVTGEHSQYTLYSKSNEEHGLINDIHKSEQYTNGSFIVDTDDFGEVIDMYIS
Chain of S. aureus Topoisomerase IV (P0C1S7 whole entry): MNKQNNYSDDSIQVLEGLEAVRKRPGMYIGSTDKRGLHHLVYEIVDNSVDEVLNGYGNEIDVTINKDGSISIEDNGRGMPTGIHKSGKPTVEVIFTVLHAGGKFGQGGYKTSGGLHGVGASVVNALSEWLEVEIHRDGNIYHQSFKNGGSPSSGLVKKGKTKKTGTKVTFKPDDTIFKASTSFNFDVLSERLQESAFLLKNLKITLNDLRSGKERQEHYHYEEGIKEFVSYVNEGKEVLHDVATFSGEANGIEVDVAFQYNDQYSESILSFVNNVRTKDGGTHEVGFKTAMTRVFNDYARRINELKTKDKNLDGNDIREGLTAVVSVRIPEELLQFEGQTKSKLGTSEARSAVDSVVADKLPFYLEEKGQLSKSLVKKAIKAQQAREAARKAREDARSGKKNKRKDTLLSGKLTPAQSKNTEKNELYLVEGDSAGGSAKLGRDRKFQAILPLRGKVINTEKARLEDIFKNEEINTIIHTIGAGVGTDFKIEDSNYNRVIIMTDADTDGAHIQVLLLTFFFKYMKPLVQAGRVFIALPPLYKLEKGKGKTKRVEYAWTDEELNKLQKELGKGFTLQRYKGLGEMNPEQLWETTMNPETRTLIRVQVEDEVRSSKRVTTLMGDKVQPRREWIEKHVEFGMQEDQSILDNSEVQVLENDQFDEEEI
Chain of E. coli DNA gyrase (P0AES4 whole entry, one chain of several): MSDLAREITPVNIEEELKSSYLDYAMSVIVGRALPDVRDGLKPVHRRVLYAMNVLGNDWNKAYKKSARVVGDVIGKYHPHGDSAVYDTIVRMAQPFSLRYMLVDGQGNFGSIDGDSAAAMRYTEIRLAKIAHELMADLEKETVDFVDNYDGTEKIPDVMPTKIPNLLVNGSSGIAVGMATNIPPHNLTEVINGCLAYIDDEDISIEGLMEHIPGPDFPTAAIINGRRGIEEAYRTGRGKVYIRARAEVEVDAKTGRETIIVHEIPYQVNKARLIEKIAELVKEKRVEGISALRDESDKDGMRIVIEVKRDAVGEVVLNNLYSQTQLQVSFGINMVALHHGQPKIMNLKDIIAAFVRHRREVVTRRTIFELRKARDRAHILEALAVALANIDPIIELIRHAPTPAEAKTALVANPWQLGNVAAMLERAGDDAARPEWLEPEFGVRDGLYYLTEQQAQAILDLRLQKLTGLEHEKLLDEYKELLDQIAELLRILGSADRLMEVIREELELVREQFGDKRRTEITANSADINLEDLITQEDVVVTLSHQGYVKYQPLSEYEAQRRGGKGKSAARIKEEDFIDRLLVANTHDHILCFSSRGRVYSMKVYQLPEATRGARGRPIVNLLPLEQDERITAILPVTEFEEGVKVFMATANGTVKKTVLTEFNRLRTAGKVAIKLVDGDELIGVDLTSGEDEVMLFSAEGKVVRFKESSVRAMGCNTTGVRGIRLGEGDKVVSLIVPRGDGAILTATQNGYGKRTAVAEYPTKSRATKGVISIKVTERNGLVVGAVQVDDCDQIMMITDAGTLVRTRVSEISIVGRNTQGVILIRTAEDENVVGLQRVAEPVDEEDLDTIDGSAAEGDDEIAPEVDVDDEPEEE

For the compound `COc1cnc2ncc(=O)n([C@H]3CC[C@H](NCc4cc5c(=O)oc6ccc(F)cc6c5[nH]4)CC3)c2c1` [Compound 212, 8-fluoro-2-({[trans-4-(7-methoxy-2-oxopyrido[2,3-b]pyrazin-1(2H)-yl)cyclohexyl]amino}methyl)[1]benzopyrano[4,3-b]pyrrol-4(1H)-one], the IC50 – broadly, the midpoint of a concentration-inhibition curve – turned out to be 100 nM in assay [1], 170 nM in assay [2], 140 nM in assay [3] and 70 nM in assay [4]. Moreover, the inhibition at 50 µM in assay [1], in assay [2], in assay [3] and in assay [4] was 100% throughout.

Turning to `O=c1oc2ccc(F)cc2c2[nH]c(CN[C@H]3CC[C@H](n4c(=O)cnc5ccc(F)cc54)CC3)cc12` [Compound 211, 8-fluoro-2-({[trans-4-(7-fluoro-2-oxoquinoxalin-1(2H)-yl)cyclohexyl]amino}methyl)[1]benzopyrano[4,3-b]pyrrol-4(1H)-one], the IC50 in assay [1], in assay [2], in assay [3] and in assay [4] was below 100 nM throughout. Moreover, the inhibition at 50 µM in assay [1], in assay [2], in assay [3] and in assay [4] was 100% each time.

With `N#Cc1cnc2c(c1)N([C@H]1CC[C@H](NCc3cc4c(=O)oc5ccc(F)cc5c4[nH]3)CC1)C(=O)CO2` [Compound 214, 1-(trans-4-{[(8-fluoro-4-oxo-1,4-dihydro[1]benzopyrano[4,3-b]pyrrol-2-yl)methyl]amino}cyclohexyl)-2-oxo-2,3-dihydro-1H-pyrido[2,3-b][1,4]oxazine-7-carbonitrile], the IC50 in assay [1] came to 120 nM; in assay [2], 1030 nM; in assay [3], 160 nM; in assay [4], 570 nM. Also, the inhibition – broadly, the relative decrease from the control value, in per cent – at 50 µM in assay [1] came to 99%; in assay [2], 100%; in assay [3], 100%; in assay [4], 100%.
